Experimental findings from EP0366632A1, “Alternative energy substrates” (priority 1988, dated 1990) are described below.

Each structure is given as a SMILES string. Marks after values point to notes of the source that are not given here.

Series [1] relates to E. coli. The series is described as follows: Microorganism count in emulsions diluted to 2% (Example 20, Table 2). Type of series: cell-based. The conditions noted are these: emulsion diluted to 2% with PBS pH=7.00, +37°C.
Series [2] concerns Staphylococcus epidermidis 61540-51. The series is described as follows: Microorganism count in 2% solutions of sodium salts (Example 19). The settings on record: 2% solution, pH about 7, +37°C. In kind it is cell-based. The procedure: (§1) Staphylococcus epidermidis 61540-51 and Escherichia coli ATTC 8739 were each added to a respective solution in a concentration of about 3000-10 000/ml. These samples were then incubated at +37°C for 20 hours. A microorganism count was carried out after 2 and 20 hours, in a manner described in microbiological literature. Parallel with the aforesaid tests, a control was run in pure phosphate buffer and in Tryptone soya broth (TSB) with additions of Staphylococcus epidermidis 61540-51 and Escherichia coli ATTC 8739 respectively, to ascertain the viability of the microorganisms to survive, i.e. the ability of the microorganisms to grow under the ideal conditions provided. After 2 hours, the number of organisms/ml of type Staphylococcus epidermidis in the phosphate solution was 4300 and after 20 hours 1. Growth could be established in TSB after 20 hours. […] This was also the case with the sodium salt of 2 percent 5-methyl-3-oxo-hexanoic acid ethyl ester. After 2 hours, the microorganism count of Escherichia coli in the phosphate solution was 3400, and after 20 hours 7400. Growth was established in TSB after 20 hours. In the solution containing 2% sodium salt of 4-methyl-3-oxo-pentanoic acid ethyl ester, the organism count was 2000 after 2 hours and 0 after 20 hours. With respect to the sodium salt of 5-methyl-3-oxo-hexanoic acid ethyl ester, the organism count was 44 after 2 hours and 0 after 20 hours.

Series [3] concerns Escherichia coli ATTC 8739. The description is as above. In kind it is cell-based. The conditions noted are these: 2% solution, pH about 7, +37°C. How it is done: as §1
Series [4] can be described thus: Unspecified toxicity, intravenous injection in mice. Type of series: in vivo. The conditions noted are these: Example 22: 37 mg per mouse i.v. How it is done: Unspecified toxicity was tested on four mice by first weighing the animals, and then injecting the animals intravenously with 0.5 ml of an emulsion of 4-methyl-3-oxo-pentanoic acid having a concentration of 50 mg/ml for 10 minutes. Each mouse received a dosage of 25 mg. The emulsion was prepared aseptically, by emulsifying sterile-filtered ester with a sterilized dispersion of egg-yolk phospholipids. […] The increase in weight of the animals was normal during the observation period (weight increase: X=4.5 g, S.D. 0.5).
The unspecific toxicity was tested on 5 mice by first weighing the animals, and then injecting intravenously 0.5 ml of an emulsion of 4-methy-3-oxo-pentanoic acid ethyl ester having a concentration of 5 mg/ml for 15 seconds. The emulsion was aseptically prepared, by emulsifying sterile-filtered ester with a sterilized dispersion of egg-yolk phospholipids. […] Each mouse received a total dosage of 2.5 mg.
Unspecified toxicity was tested on four mice by first weighing the animals, and then injecting intravenously 0.2 ml of an emulsion of 4-methyl-3-oxo-pentanoic acid ethyl ester having a concentration of 33 mg/ml for 30 seconds. Each mouse received a dosage of 6.7 mg. The emulsion was prepared aseptically, by emulsifying sterile-filtered ester with a sterilized dispersion of egg-yolk phospholipids. […]

Where [5] appears, read: after 2 hours, inoculum about 3000-10 000/ml.

`CCOC(=O)C(=O)C(C)C` [Ethyl-3-methyl-2-oxo-butyrate]: the number of microorganisms in series [1] (0 hr) was 0*; in series [1] (2 hrs), 0; in series [1] (20 hrs), 0.
Take `CCOC(=O)C(C)=O` [Ethyl-pyruvate]: the number of microorganisms in series [1] (0 hr) is 0*; in series [1] (2 hrs), 0; in series [1] (20 hrs), 0.
In the case of `CCOC(=O)CC(=O)C(C)C.[Na]` [sodium salt of 4-methyl-3-oxo-pentanoic acid ethyl ester], the number of organisms result in series [2] (setting [5]) and in series [2] (after 20 hours) was “No organisms were found” in each case. The organism count came to 2000 in series [3] (setting [5]) and 0 in series [3] (after 20 hours).
On to `CCOC(=O)CC(=O)CC(C)C.[Na]` [sodium salt of 5-methyl-3-oxo-hexanoic acid ethyl ester], for which the “time after completing the injection until return to normal” value in series [4] was found to be 1 min. Besides, in series [4], the “weight development over the following 7 days” value is on record as “normal weight development”. In addition, the number of organisms entry in series [2] (setting [5]) and in series [2] (after 20 hours) was “No organisms were found” each time. Also, the figures for the organism count in series [3] (setting [5]) and in series [3] (after 20 hours) were 44 and 0, respectively.
